Laboratory results from patent US7517874B2 (priority 2007, dated 2009).

Experiments:
[1] = target: T1, rat CB2 receptor (rCB2) (Rattus norvegicus, UniProt Q9QZN9); assay: cell-based; format: cell-based; conditions: for +/− RCB2: agonist or inverse agonist at rCB2
T1 sequence (Q9QZN9 1-360): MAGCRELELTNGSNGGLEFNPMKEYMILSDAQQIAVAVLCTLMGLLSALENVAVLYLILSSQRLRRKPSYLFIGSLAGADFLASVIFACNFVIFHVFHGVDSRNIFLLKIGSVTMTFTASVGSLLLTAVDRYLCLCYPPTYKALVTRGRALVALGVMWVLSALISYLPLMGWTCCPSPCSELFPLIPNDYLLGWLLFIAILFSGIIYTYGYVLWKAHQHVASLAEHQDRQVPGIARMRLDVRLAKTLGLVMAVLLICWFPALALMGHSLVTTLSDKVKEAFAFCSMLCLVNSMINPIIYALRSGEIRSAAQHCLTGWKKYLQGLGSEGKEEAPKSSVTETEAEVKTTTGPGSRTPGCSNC
In short: (§1)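 Agonism or inverse agonism was assessed as change in intracellular cAMP in CHO-K1 cells expressing human CB1 or rat CB2 (genomic DNA, pcDNA3.1).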

[2] = target: human CB1 receptor (hCB1) (Homo sapiens, UniProt P21554); assay: cell-based; format: cell-based
human CB1 receptor (hCB1), sequence (P21554 whole entry): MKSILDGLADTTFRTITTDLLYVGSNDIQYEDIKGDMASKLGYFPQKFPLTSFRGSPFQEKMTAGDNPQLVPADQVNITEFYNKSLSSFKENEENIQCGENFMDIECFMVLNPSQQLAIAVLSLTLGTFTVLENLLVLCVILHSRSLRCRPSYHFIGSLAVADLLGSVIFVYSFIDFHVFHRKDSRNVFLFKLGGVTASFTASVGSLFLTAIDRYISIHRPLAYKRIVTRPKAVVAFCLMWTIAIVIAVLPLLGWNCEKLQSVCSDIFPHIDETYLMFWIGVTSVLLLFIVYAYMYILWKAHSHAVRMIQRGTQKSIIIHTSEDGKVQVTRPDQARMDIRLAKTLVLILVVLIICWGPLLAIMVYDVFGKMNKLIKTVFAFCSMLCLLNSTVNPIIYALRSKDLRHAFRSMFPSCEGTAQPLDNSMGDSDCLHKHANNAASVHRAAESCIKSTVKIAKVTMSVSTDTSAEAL
In short: as §1

Row | Compound | +/− RCB2 [1] | EC50 [2] | EC50 [1]
1 | CNC(=O)[C@@H](NC(=O)c1nc(-c2ccsc2)n2c1CN(C)CCC2)C(C)(C)C [Compound 329, (S)-N-(3,3-dimethyl-1-(methylamino)-1-oxobutan-2-yl)-8-methyl-3-(thiophen-3-yl)-6,7,8,9-tetrahydro-5H-imidazo[1,5-a][1,4]diazepine-1-carboxamide] | + | > 10 µM | 
2 | CNC(=O)[C@@H](NC(=O)c1nc(-c2ccc(C(F)(F)F)cc2)n2c1CN(C)CCC2)C(C)(C)C [Compound 330, (S)-N-(3,3-dimethyl-1-(methylamino)-1-oxobutan-2-yl)-8-methyl-3-(4-(trifluoromethyl)phenyl)-6,7,8,9-tetrahydro-5H-imidazo[1,5-a][1,4]diazepine-1-carboxamide] | − | > 10 µM | 
3 | CNC(=O)[C@@H](NC(=O)c1nc(-c2cc(F)cc(F)c2)n2c1CN(C)CCC2)C(C)(C)C [Compound 331, (S)-3-(3,5-difluorophenyl)-N-(3,3-dimethyl-1-(methylamino)-1-oxobutan-2-yl)-8-methyl-6,7,8,9-tetrahydro-5H-imidazo[1,5-a][1,4]diazepine-1-carboxamide] | + | > 10 µM | 
4 | CNC(=O)[C@@H](NC(=O)c1nc(-c2ccc(C)cc2)n2c1CN(C)CCC2)C(C)(C)C [Compound 332, (S)-N-(3,3-dimethyl-1-(methylamino)-1-oxobutan-2-yl)-8-methyl-3-p-tolyl-6,7,8,9-tetrahydro-5H-imidazo[1,5-a][1,4]diazepine-1-carboxamide] |  | > 10 µM | > 10 µM
5 | CNC(=O)[C@@H](NC(=O)c1nc(-c2ccccc2OC(F)(F)F)n2c1CN(C)CCC2)C(C)(C)C [Compound 333, (S)-N-(3,3-dimethyl-1-(methylamino)-1-oxobutan-2-yl)-8-methyl-3-(2-(trifluoromethoxy)phenyl)-6,7,8,9-tetrahydro-5H-imidazo[1,5-a][1,4]diazepine-1-carboxamide] | + | > 10 µM | 
6 | CNC(=O)[C@@H](NC(=O)c1nc(-c2ccc(C)c(Cl)c2)n2c1CN(C)CCC2)C(C)(C)C [Compound 334, (S)-3-(3-chloro-4-methylphenyl)-N-(3,3-dimethyl-1-(methylamino)-1-oxobutan-2-yl)-8-methyl-6,7,8,9-tetrahydro-5H-imidazo[1,5-a][1,4]diazepine-1-carboxamide] |  | > 10 µM | > 10 µM
7 | CNC(=O)[C@@H](NC(=O)c1nc(-c2cc(C)ccc2Cl)n2c1CN(C)CCC2)C(C)(C)C [Compound 335, (S)-3-(2-chloro-5-methylphenyl)-N-(3,3-dimethyl-1-(methylamino)-1-oxobutan-2-yl)-8-methyl-6,7,8,9-tetrahydro-5H-imidazo[1,5-a][1,4]diazepine-1-carboxamide] |  | > 10 µM | > 10 µM
8 | CNC(=O)[C@@H](NC(=O)c1nc(/C=C/c2ccccc2)n2c1CN(C)CCC2)C(C)(C)C [Compound 336, (S,E)-N-(3,3-dimethyl-1-(methylamino)-1-oxobutan-2-yl)-8-methyl-3-styryl-6,7,8,9-tetrahydro-5H-imidazo[1,5-a][1,4]diazepine-1-carboxamide] | − | > 10 µM | 
9 | CNC(=O)[C@@H](NC(=O)c1nc(-c2ccc(F)cc2Cl)n2c1CN(C)CCC2)C(C)(C)C [Compound 337, (S)-3-(2-chloro-4-fluorophenyl)-N-(3,3-dimethyl-1-(methylamino)-1-oxobutan-2-yl)-8-methyl-6,7,8,9-tetrahydro-5H-imidazo[1,5-a][1,4]diazepine-1-carboxamide] | + | > 10 µM | 
10 | CNC(=O)[C@@H](NC(=O)c1nc(-c2cccc(OC(F)(F)F)c2)n2c1CN(C)CCC2)C(C)(C)C [Compound 338, (S)-N-(3,3-dimethyl-1-(methylamino)-1-oxobutan-2-yl)-8-methyl-3-(3-(trifluoromethoxy)phenyl)-6,7,8,9-tetrahydro-5H-imidazo[1,5-a][1,4]diazepine-1-carboxamide] |  | > 10 µM | > 10 µM
11 | CNC(=O)[C@@H](NC(=O)c1nc(-c2ccc(OC(F)(F)F)cc2)n2c1CN(C)CCC2)C(C)(C)C [Compound 339, (S)-N-(3,3-dimethyl-1-(methylamino)-1-oxobutan-2-yl)-8-methyl-3-(4-(trifluoromethoxy)phenyl)-6,7,8,9-tetrahydro-5H-imidazo[1,5-a][1,4]diazepine-1-carboxamide] | − | > 10 µM | 
12 | CNC(=O)[C@@H](NC(=O)c1nc(-c2ccc(C)cc2F)n2c1CN(C)CCC2)C(C)(C)C [Compound 340, (S)-N-(3,3-dimethyl-1-(methylamino)-1-oxobutan-2-yl)-3-(2-fluoro-4-methylphenyl)-8-methyl-6,7,8,9-tetrahydro-5H-imidazo[1,5-a][1,4]diazepine-1-carboxamide] | + | > 10 µM | 
13 | CNC(=O)[C@@H](NC(=O)c1nc(-c2ccc3c(c2)OCO3)n2c1CN(C)CCC2)C(C)(C)C [Compound 341, (S)-3-(benzo[d][1,3]dioxol-5-yl)-N-(3,3-dimethyl-1-(methylamino)-1-oxobutan-2-yl)-8-methyl-6,7,8,9-tetrahydro-5H-imidazo[1,5-a][1,4]diazepine-1-carboxamide] | − | > 10 µM | 
14 | CNC(=O)[C@@H](NC(=O)c1nc(-c2ccc(C#N)cc2)n2c1CN(C)CCC2)C(C)(C)C [Compound 342] |  | > 10 µM | > 10 µM
15 | CNC(=O)[C@@H](NC(=O)c1nc(-c2ccc(OC)cc2C)n2c1CN(C)CCC2)C(C)(C)C [Compound 343, (S)-N-(3,3-dimethyl-1-(methylamino)-1-oxobutan-2-yl)-3-(4-methoxy-2-methylphenyl)-8-methyl-6,7,8,9-tetrahydro-5H-imidazo[1,5-a][1,4]diazepine-1-carboxamide] |  | > 10 µM | > 10 µM
16 | CNC(=O)[C@@H](NC(=O)c1nc(-c2cnc(OC)nc2OC)n2c1CN(C)CCC2)C(C)(C)C [Compound 344, (S)-3-(2,4-dimethoxypyrimidin-5-yl)-N-(3,3-dimethyl-1-(methylamino)-1-oxobutan-2-yl)-8-methyl-6,7,8,9-tetrahydro-5H-imidazo[1,5-a][1,4]diazepine-1-carboxamide] |  | > 10 µM | > 10 µM
17 | CNC(=O)[C@@H](NC(=O)c1nc(-c2cccc(F)c2)n2c1CN(C)CCC2)C(C)(C)C [Compound 345, (S)-N-(3,3-dimethyl-1-(methylamino)-1-oxobutan-2-yl)-3-(3-fluorophenyl)-8-methyl-6,7,8,9-tetrahydro-5H-imidazo[1,5-a][1,4]diazepine-1-carboxamide] | + | > 10 µM | 
18 | CNC(=O)[C@@H](NC(=O)c1nc(-c2cccc(OC)c2F)n2c1CN(C)CCC2)C(C)(C)C [Compound 346, (S)-N-(3,3-dimethyl-1-(methylamino)-1-oxobutan-2-yl)-3-(2-fluoro-3-methoxyphenyl)-8-methyl-6,7,8,9-tetrahydro-5H-imidazo[1,5-a][1,4]diazepine-1-carboxamide] | − | > 10 µM | 
19 | CNC(=O)[C@@H](NC(=O)c1nc(-c2ccc(F)c(C)c2)n2c1CN(C)CCC2)C(C)(C)C [Compound 347, (S)-N-(3,3-dimethyl-1-(methylamino)-1-oxobutan-2-yl)-3-(4-fluoro-3-methylphenyl)-8-methyl-6,7,8,9-tetrahydro-5H-imidazo[1,5-a][1,4]diazepine-1-carboxamide] |  | > 10 µM | > 10 µM
20 | CNC(=O)[C@@H](NC(=O)c1nc(-c2cccnc2)n2c1CN(C)CCC2)C(C)(C)C [Compound 348, (S)-N-(3,3-dimethyl-1-(methylamino)-1-oxobutan-2-yl)-8-methyl-3-(pyridin-3-yl)-6,7,8,9-tetrahydro-5H-imidazo[1,5-a][1,4]diazepine-1-carboxamide] | + | > 10 µM | 
21 | CNC(=O)[C@@H](NC(=O)c1nc(-c2cccs2)n2c1CN(C)CCC2)C(C)(C)C [Compound 349, (S)-N-(3,3-dimethyl-1-(methylamino)-1-oxobutan-2-yl)-8-methyl-3-(thiophen-2-yl)-6,7,8,9-tetrahydro-5H-imidazo[1,5-a][1,4]diazepine-1-carboxamide] | + | > 10 µM | 
22 | CNC(=O)[C@@H](NC(=O)c1nc(-c2ccc(OC)c(C)c2)n2c1CN(C)CCC2)C(C)(C)C [Compound 350, (S)-N-(3,3-dimethyl-1-(methylamino)-1-oxobutan-2-yl)-3-(4-methoxy-3-methylphenyl)-8-methyl-6,7,8,9-tetrahydro-5H-imidazo[1,5-a][1,4]diazepine-1-carboxamide] | − | > 10 µM | 
23 | CNC(=O)[C@@H](NC(=O)c1nc(-c2cc3ccccc3o2)n2c1CN(C)CCC2)C(C)(C)C [Compound 351, (S)-3-(benzofuran-2-yl)-N-(3,3-dimethyl-1-(methylamino)-1-oxobutan-2-yl)-8-methyl-6,7,8,9-tetrahydro-5H-imidazo[1,5-a][1,4]diazepine-1-carboxamide] | + | > 10 µM | 
24 | CNC(=O)[C@@H](NC(=O)c1nc(-c2cscc2C)n2c1CN(C)CCC2)C(C)(C)C [Compound 352, (S)-N-(3,3-dimethyl-1-(methylamino)-1-oxobutan-2-yl)-8-methyl-3-(4-methylthiophen-3-yl)-6,7,8,9-tetrahydro-5H-imidazo[1,5-a][1,4]diazepine-1-carboxamide] | + | > 10 µM | 
